Experimental data published in publication doi:10.1101/2021.05.05.442828v1 (biorxiv, 2021).

Key:
Format in all cases: cell-based
KV11.1 (hERG) = KV11.1 (hERG) (Homo sapiens, UniProt Q12809); assay: automated patch clamp
TRPM8 (hTRPM8) = TRPM8 (hTRPM8) (Homo sapiens, UniProt Q7Z2W7); assay: Fluo-4 calcium flux assay, HEK-293 TRPM8 cells; details: antagonist mode; 30 min incubation; normalized to icilin (50 µM) response
KCa1.1 (hKCa1.1, KCNMA) = KCa1.1 (hKCa1.1, KCNMA) (Homo sapiens, UniProt Q12791); assay: two-electrode voltage clamp, Xenopus laevis oocytes; details: Kulori solution, pH 7.4; n=5
Sequence of KCa1.1 (hKCa1.1, KCNMA) (Q12791 whole entry): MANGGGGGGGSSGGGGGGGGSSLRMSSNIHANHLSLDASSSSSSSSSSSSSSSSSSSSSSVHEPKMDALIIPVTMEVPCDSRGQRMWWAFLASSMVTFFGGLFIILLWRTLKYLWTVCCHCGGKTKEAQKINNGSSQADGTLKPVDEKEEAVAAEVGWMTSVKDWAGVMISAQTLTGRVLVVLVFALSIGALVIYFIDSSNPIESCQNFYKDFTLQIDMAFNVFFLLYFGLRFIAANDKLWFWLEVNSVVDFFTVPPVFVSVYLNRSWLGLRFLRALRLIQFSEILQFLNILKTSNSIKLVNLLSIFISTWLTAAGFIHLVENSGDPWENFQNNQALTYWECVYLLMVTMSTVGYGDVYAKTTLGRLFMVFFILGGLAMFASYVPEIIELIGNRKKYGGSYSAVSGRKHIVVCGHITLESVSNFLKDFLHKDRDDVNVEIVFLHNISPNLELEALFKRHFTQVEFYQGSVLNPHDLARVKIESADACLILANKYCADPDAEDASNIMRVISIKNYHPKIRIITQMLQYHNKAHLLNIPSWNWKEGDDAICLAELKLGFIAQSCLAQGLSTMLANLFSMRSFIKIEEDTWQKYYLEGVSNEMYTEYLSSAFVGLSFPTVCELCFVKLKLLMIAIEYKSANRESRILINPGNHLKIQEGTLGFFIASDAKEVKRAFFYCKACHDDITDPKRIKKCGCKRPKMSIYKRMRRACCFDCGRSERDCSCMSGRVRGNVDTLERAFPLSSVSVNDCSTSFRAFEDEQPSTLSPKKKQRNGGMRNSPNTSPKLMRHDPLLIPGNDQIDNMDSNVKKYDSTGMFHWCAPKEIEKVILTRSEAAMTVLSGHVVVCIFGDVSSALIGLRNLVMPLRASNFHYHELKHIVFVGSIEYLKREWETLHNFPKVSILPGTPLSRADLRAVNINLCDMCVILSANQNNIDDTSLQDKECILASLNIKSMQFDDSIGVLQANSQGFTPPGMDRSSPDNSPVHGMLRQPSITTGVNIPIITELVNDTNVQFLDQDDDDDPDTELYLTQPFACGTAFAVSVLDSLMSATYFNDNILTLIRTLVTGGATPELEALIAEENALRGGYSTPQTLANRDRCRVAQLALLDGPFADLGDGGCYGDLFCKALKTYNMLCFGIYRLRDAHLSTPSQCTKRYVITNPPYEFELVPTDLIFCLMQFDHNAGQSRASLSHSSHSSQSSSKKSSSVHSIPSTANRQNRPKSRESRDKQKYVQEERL

Sequence of TRPM8 (hTRPM8) (Q7Z2W7 whole entry): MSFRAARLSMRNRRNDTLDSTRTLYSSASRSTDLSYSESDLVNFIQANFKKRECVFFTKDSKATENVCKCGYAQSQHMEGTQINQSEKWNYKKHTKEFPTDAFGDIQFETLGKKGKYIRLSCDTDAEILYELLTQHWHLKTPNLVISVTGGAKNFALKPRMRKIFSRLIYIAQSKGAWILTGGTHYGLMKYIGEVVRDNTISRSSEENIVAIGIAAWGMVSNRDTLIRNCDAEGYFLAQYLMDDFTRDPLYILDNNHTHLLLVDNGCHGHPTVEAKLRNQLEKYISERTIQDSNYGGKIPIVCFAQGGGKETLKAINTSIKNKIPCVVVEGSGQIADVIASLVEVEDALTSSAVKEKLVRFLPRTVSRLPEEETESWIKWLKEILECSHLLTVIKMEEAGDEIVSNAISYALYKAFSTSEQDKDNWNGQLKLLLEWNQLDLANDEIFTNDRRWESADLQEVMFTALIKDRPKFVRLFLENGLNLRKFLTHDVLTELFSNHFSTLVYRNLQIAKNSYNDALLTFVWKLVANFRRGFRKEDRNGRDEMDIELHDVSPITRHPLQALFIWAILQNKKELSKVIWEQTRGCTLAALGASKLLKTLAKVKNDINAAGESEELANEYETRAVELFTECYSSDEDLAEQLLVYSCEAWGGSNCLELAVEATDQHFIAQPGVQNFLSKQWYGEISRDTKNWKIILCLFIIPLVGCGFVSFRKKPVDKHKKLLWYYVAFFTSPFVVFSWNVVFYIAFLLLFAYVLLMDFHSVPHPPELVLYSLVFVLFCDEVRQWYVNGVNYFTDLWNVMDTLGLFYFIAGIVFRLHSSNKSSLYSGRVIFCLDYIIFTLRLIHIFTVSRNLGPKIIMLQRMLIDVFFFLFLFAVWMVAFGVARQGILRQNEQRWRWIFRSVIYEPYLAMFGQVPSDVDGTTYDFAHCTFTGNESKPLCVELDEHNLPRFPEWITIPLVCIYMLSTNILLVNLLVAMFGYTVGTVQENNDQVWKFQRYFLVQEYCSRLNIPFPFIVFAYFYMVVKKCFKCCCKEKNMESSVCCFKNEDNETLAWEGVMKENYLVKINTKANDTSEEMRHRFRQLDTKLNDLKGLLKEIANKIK
Sequence of KV11.1 (hERG) (Q12809 whole entry): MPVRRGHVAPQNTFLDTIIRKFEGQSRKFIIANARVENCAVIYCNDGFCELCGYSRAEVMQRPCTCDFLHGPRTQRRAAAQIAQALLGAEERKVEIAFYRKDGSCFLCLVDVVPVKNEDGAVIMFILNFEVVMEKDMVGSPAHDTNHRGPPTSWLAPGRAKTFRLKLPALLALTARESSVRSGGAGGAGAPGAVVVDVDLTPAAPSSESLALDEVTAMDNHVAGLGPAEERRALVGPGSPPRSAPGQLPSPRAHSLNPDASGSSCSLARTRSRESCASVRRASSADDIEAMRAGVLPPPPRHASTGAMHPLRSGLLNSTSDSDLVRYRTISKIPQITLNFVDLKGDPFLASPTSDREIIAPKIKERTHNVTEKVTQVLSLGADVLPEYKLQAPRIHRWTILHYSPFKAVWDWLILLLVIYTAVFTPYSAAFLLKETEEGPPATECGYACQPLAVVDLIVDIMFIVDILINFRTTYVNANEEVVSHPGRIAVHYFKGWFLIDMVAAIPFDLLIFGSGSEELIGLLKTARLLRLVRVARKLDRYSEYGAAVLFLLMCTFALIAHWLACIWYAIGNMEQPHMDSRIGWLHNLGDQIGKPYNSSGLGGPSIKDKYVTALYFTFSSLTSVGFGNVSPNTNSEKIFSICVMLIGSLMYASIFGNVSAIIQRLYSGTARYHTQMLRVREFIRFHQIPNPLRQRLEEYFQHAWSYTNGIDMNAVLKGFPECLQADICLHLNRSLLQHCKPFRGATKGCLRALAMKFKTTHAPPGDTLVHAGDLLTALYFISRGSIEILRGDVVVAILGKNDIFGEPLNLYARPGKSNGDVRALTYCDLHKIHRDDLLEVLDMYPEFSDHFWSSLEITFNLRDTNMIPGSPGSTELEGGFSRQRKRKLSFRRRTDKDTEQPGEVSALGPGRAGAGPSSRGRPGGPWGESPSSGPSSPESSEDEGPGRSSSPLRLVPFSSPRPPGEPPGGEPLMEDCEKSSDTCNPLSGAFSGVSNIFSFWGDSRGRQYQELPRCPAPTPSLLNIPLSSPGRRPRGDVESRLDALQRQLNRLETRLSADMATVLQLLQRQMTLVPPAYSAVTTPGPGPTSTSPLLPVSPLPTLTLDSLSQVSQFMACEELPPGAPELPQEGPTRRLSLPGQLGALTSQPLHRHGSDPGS

COc1c(I)cc(CCN)cc1I [DIMTA, 2-(3,5-diiodo-4-methoxyphenyl)ethan-1-amine]
IC50 (KV11.1 (hERG)): 18.7 ± 0.1 µM
IC50 (TRPM8 (hTRPM8)): 112 µM
% inhibition at 5 μM (KCa1.1 (hKCa1.1, KCNMA)): 18 ± 5%
